Assay results from ChEMBL document CHEMBL1926617, “Antifungal activities of novel non-azole molecules against S. cerevisiae and C. albicans” (Eur J Med Chem, 2012).
Converted amounts (≈) assume the structure as drawn. The source made the active and inactive calls. No cut-off for these calls is given here.

Legend:
[1] = test system: Saccharomyces cerevisiae; assay: Fungistatic activity against Saccharomyces cerevisiae ATCC 24657 assessed as cell proliferation at 90.7 uM after 24 hrs by agar plate bioassay relative to control; assay type: functional; settings: ATCC 24657, 24 h
[2] = test system: Saccharomyces cerevisiae; assay: Fungistatic activity against Saccharomyces cerevisiae ATCC 24657 assessed as cell proliferation at 90.7 uM after 24 hrs by spectrophotometric bioassay; assay type: functional, organism-based
[3] = test system: Saccharomyces cerevisiae; assay: Antifungal activity against Saccharomyces cerevisiae ATCC 24657 assessed as growth inhibition at 90.7 uM after 24 hrs by agar plate bioassay; assay type: functional, organism-based
[4] = test system: Candida albicans; assay: Antifungal activity against Candida albicans assessed as morphogenetic transformation after 3 hrs by phase-contrast microscopy; assay type: functional
[5] = test system: Saccharomyces cerevisiae; assay: Antifungal activity against Saccharomyces cerevisiae ATCC 24657 assessed as growth inhibition at 90.7 uM after 24 hrs by spectrophotometric bioassay; assay type: functional, organism-based
[6] = test system: Saccharomyces cerevisiae; assay: Fungistatic activity against Saccharomyces cerevisiae ATCC 24657 assessed as cell growth at 90.7 uM after 48 hrs by spectrophotometric bioassay; assay type: functional, organism-based
[7] = test system: Saccharomyces cerevisiae; assay: Antifungal activity against Saccharomyces cerevisiae ATCC 24657 assessed as growth at 90.7 uM after 48 hrs by agar plate bioassay relative to control; assay type: functional
[8] = test system: Saccharomyces cerevisiae; assay: Antifungal activity against Saccharomyces cerevisiae ATCC 24657 assessed as growth at 90.7 uM after 48 hrs by spectrophotometric bioassay relative to control; assay type: functional
[9] = test system: Saccharomyces cerevisiae; assay: Antifungal activity against Saccharomyces cerevisiae ATCC 24657 assessed as growth inhibition after 24 to 48 hrs by agar plate bioassay; assay type: functional
[10] = test system: Candida albicans; assay: Antifungal activity against Candida albicans ATCC 32032 assessed as growth inhibition after 24 to 48 hrs by agar plate bioassay; assay type: functional
[11] = test system: Saccharomyces cerevisiae; assay: Fungistatic activity against Saccharomyces cerevisiae ATCC 24657 assessed as cell proliferation compound after 24 to 48 hrs by agar plate bioassay; assay type: functional, organism-based
[12] = test system: Saccharomyces cerevisiae; assay: Fungistatic activity against Saccharomyces cerevisiae ATCC 24657 assessed as cell proliferation compound after 24 to 48 hrs by spectrophotometric bioassay; assay type: functional, organism-based
[13] = test system: Saccharomyces cerevisiae; assay: Antifungal activity against Saccharomyces cerevisiae ATCC 24657 assessed as growth inhibition after 24 to 48 hrs by spectrophotometric bioassay; assay type: functional

Row | SMILES | MIC [9] [µM] | also measured
1 | CCC(C)n1ncn(-c2ccc(N3CCN(c4ccc(OCC5COC(Cn6cncn6)(c6ccc(Cl)cc6Cl)O5)cc4)CC3)cc2)c1=O (stereo not drawn) [ITRACONAZOLE] | – | inhibition at 90.7 µM [1]: 95%; Activity [2]: Active; growth inhibition (GI) [3]: inactive; MIC [4]: > 90.7 µM; growth inhibition (GI) [5]: inactive; Activity [6]: inactive; fold change (FC) [7]: 1.5; fold change (FC) [8]: 1.5
2 | CSc1sc(C(=O)N2CCC3(CCN(C(=O)CNC(=O)c4ccco4)CC3)C2)c2c1C(=O)CCC2 | > 200 | –
3 | CN(CCC#N)c1ccc(/C=N/NC(=O)N/N=C/c2ccc(N(C)CCC#N)cc2)cc1 | > 200 | –
4 | N#C/C(=C\c1ccc(C(F)(F)F)cc1)c1ccc(OCc2c(F)cccc2Cl)cc1 | > 200 | –
5 | CN(CCC#N)c1ccc(C=C(C#N)C#N)cc1 | > 200 | –
6 | CCC(C)(C)c1ccc(CC(C)CN2C[C@@H](C)O[C@@H](C)C2)cc1 (stereo partly drawn) [AMOROLFINE] | – | MIC [4]: 202 µM (≈ 64 µg/mL)
7 | CN(CCC#N)c1ccc(/C=N/c2ccc(C(=O)O)cc2)cc1 | > 200 | –
8 | N#CC(c1ccc2c(c1)OCO2)N(Cc1ccccc1)C(=O)c1sc2ccccc2c1Cl (stereo not drawn) | > 200 | –
9 | COc1ccc(-c2sc(/N=C/c3cc(Br)cc(Br)c3O)c(C#N)c2C)cc1OC | – | MIC [10]: > 100 µM
10 | Cc1nc(C)c(C(=O)N2CCC(c3nc(C(=O)N(CCC#N)Cc4ccco4)cs3)CC2)s1 | > 200 | –
11 | O=C(c1ccncc1)c1ccc(Cl)cc1 | > 200 | MIC50 [9]: 100 µM (≈ 21.8 µg/mL)
12 | C=CCSc1ncccc1C1=NN(CC(=O)N(CCC(=O)OCC)Cc2ccco2)C(=O)C1 | > 200 | –
13 | CC1CCc2c(sc(NC(=O)Sc3nnc(-c4ccc(Cl)cc4)n3-c3ccccc3)c2C#N)C1 (stereo not drawn) | – | MIC [10]: > 100 µM
14 | CC[C@@H]1C(=O)OC[C@@H]1Cc1cncn1C [PILOCARPINE] | > 200 | –
15 | COc1ccc(C(=O)CCC(=O)N2CCC(c3nc(C(=O)Nc4ccc(O)c(C)c4C)cs3)CC2)cc1 | > 200 | –
16 | O=C(/C=C\c1ccco1)NCC(=O)N1CCC(c2nccn2CCc2ccsc2)CC1 | > 200 | –

Further lines, with some results ahead:

Row | MIC [9] [µM] | SMILES | also measured
17 | > 200 | COC(=O)c1scc(C)c1NC(=O)c1ccc(C(C)(C)C)cc1 | –
18 | 100 (≈ 22.5 µg/mL) | Cc1ccc(Cc2cc(C)ncc2C)c(C)c1 | MIC50 [9]: 14 µM (≈ 3.15 µg/mL)
19 | > 200 | CCOC(=O)/C(C#N)=C/c1ccc(N(C)CCC#N)cc1 | –
20 | 120 (≈ 32.8 µg/mL) | Cc1nn(C)c(=O)c2noc(/C=C/c3ccsc3)c12 | Activity [11]: inactive; MIC50 [9]: 35 µM (≈ 9.57 µg/mL); Activity [12]: inactive
21 | > 200 | O=[N+]([O-])c1ccc(Cc2ccncc2)cc1 | MIC50 [9]: 120 µM (≈ 25.7 µg/mL)
22 | > 200 | Cc1cccc(C(=O)Nc2sc3c(c2C(N)=O)CCCC3)c1 | MIC50 [13]: 50 µM (≈ 15.7 µg/mL)
23 | > 200 | Cc1n[nH]c(=O)c(N)c1-c1cc(-c2ccsc2)[nH]n1 | –
24 | > 200 | C=CCn1c(SCC(=O)c2ccccc2)nc2sc3c(c2c1=O)CCC(C)C3 (stereo not drawn) | –
25 | > 200 | COc1nc2c(c(-c3ccc[nH]3)c1C#N)Cc1ccccc1-2 | –
26 | > 200 | COc1ccc(CC2c3cc(OC)c(OC)cc3CCN2C=C(C#N)C#N)cc1OC (stereo not drawn) | –
27 | > 150 | Cc1ccc(C(=O)CC(Sc2ccc3ccccc3c2)c2ccsc2)cc1 (stereo not drawn) | –
28 | > 200 | CCOc1ccc(/N=C/c2ccc(N(C)CCC#N)cc2)cc1 | –
29 | > 200 | N#CC(C#N)=CNc1ccc2oc3ncccc3c(=O)c2c1 | –
